From patent US11105794B2, “In vitro nephrotoxicity screening assay” (Hoffmann-La Roche Inc., priority 2016, dated 2021)
l = locked nucleic acid (LNA); d = 2'-deoxy (DNA)

Assays:
A549 cells [1] = experiment: EGF assay, A549 cells transfected with oligonucleotide; type: cell-based, human; settings: A549, 48 hours after transfection;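 also: values as percent of saline control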
Protocol: (§1) A549 cells (ATCC CCL-185) were cultivated according to the manufacturer's instructions in A549 medium [F-12K Nut Mix (Gibco, 21127-022), 1% penicillin/streptomycin (Gibco: 15140-122), 10% FBS (Gibco 16000-044)].
(§2) Prior to treatment with oligonucleotides the A549 cells were seeded in 96 well plates at 3′000 cells per well in A549 regular medium and grown until 60% confluence. […]
(§3) A549 were cultivated as described in the “Materials and methods” section. At after at 50-60% confluence the oligonucleotides were transfected into the cells using 0.5 μl Lipofectamin (Invitrogen, 11668-019) in 25 μl OptiMEM® (GIBCO 31985062) and 1 ng or 10 ng oligonucleotide in the same volume OptiMEM. The cells were incubated over night at 37° C. The medium was changed using A459 regular medium+10 ng/ml EGF. 48 hours after transfection the medium was collected for EGF measurements and the cells were harvested for ATP measurements.

[2] = system: Wistar Han Crl:WI(Han) male rats; experiment: In vivo nephrotoxicity in rats; settings: 40 mg/kg on days 1 and 8, assessed day 15, 40 mg/kg
Protocol: Purpose bred Wistar Han Crl:WI(Han) male rats obtained from Charles River Laboratories at 7 to 8 weeks of age were divided into groups of 4 (table 1, exp. A) or 8 (table 1, exp. B) based on body weight and acclimatized for at least 5 days before dosing. The animals were housed under standard environmental conditions ([…], relative humidity 50±20%, a light/dark cycle 12 h/12 h, pelleted food and water ad libitum), were offered enriched environment in an AAALAC accredited facility and were regularly and carefully monitored. All procedures were in accordance with the respective local regulations and according to the animal permissions granted by the Institutional Animal Care and Use Committee. Test compounds were formulated in isotonic sterile saline, sterile filtered (0.22 μm), and dosed at 40 mg/kg on days 1 and 8 (2.5 ml/kg) in the intrascapular region. Control group animals received saline as vehicle control. On day 15 animals were orally administered tap water (10 ml/kg), and urine was collected on ice for 6 hours in metabolic cages. […] On day 15 the rats were sacrificed by an intraperitoneal injection of pentobarbital and exsanguinated. Kidney cortex samples were collected and fixed by immersion in 10% neutral buffered formalin, embedded in paraffin, sectioned to 5 μm and stained with hematoxylin and eosin (H&). The H&E sections were then scanned at 20× magnification using an Aperio ScanScope AT™ (Leica Biosystems) scanner and pictures were then captured via ImageScope™ software from the scanned images. One or more of the following parameters were assessed kidney weight, serum creatinine, urine protein, KIM-1 protein in urine, KIM-1 mRNA, kidney degeneration/regeneration and relative tubulotoxicity grade.

PTEC-TERT1 cells [3] = experiment: EGF assay, supernatant of PTEC-TERT1 cells; settings: for Toxicity grade: from EGF, assay window saline vs toxic reference compound 4-1
Protocol: Prior to treatment with oligonucleotides the PTEC-TERT1 were seeded into collagen I-coated 96-well plates (Corning, 356407) at a density of 40 000 and 20 000 cells/well respectively in PTEC medium and grown until confluence.
Oligonucleotides were dissolved in PBS and added to the cell culture at the given concentration, such as 10, 30 or 100 μM. The total volume of each well was 100 μl. PBS served as vehicle control.
When extra cellular markers, like EGF and KIM-1, were analyzed following the oligonucleotide treatment the medium was collected and stored at −20° C. until further analysis. […] The collected medium was stored at −20° C.
For analysis of human EGF, cell supernatants were thawed on ice, diluted 1:2 and 1:10 in sample dilution buffer (BioRad catalog # M60-009RDPD) and analyzed by Luminex®-based ELISA using human EGF beads (Bio-Plex Pro™ Human Cancer Biomarker Panel 2 EGF Set#171BC603M), or followed by analysis using the Bio-Plex® 200 Systems (BioRad) according to the manufacturer's instructions. Data are reported as mean concentrations and standard deviations of triplicate wells.

A549 cells [4] = experiment: Intracellular ATP assay, A549 cells transfected with oligonucleotide; type: cell-based, human; settings: A549, 48 hours after transfection;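 also: ATP as percent of saline control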
Protocol: as §1, §2
Each sample was tested in triplicate.
as §3

PTEC-TERT1 cells [5] = experiment: Morphological changes of PTEC-TERT1 cells upon oligonucleotide treatment; type: cell-based, human; settings: 100 μM oligonucleotide, 7 days, bright field microscopy, vs saline
Protocol: PTEC-TERT1 cells were cultures as described in the “Materials and methods” section. To mimic the physiological exposure of renal tubules to circulating naked oligonucleotide (i.e. without assistance of delivery technology, herein termed gymnosis or gymnotic delivery), confluent monolayers of PTEC-TERT1 cells were exposed to an aqueous solution of 100 μM oligonucleotide. The medium was replaced every three days including 100 μM fresh oligonucleotide in the fresh medium.
After 7 days of treatment the morphological alterations in the treated cell cultures were investigated under bright field microscopy.

PCSK9 mRNA = experiment: Target knock down (PCSK9 mRNA levels) in PTEC-TERT1 cells; type: cell-based, human; settings: normalized to PPIB
Protocol: For assessment of the target knock down (PCSK9 mRNA levels) total mRNA was extracted from the cells adding 100 μl of 1× RNA lysis mixture (QuantiGene® Sample Processing Kit, QS0101) directly into the wells according to the manufacturer's instructions. RNA lysis mixtures were kept at −80° C. until analysis. For gene expression analysis, 20 μl of lysates were mixed with an mRNA-capture magnetic beads sets (Panomics QuantiGene® Plex Set catalog #12697), incubated overnight, processed for branched DNA amplification and analyzed according to the manufacturer's instructions (Panomics QuantiGene® Plex Assay kit, QP1015). The PPIB probe was used as housekeeping gene for normalization. Average Fluoresence Intensity (FI) and standard deviation of 3 biological replicates were calculated and normalized on vehicle control. The results are shown in table 11, and represent the average of three identical treatments.

[6] = system: Primary human hepatocytes; experiment: EGF assay, culture media of primary human hepatocytes; type: cell-based; settings: 10 ng/ml EGF in medium;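 also: values as percent of saline vehicle control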
Protocol: Cryopreserved human hepatocytes were suspended in William's Medium E (WME) without phenol red (Sigma W-1878) supplemented with 10% fetal calf serum, penicillin (100 U/ml), streptomycin (0.1 mg/ml) at a density of approx. 1×10^6 cells/ml and seeded into collagen-coated 96-well plates (Becton Dickinson AG, Allschwil, Switzerland) at a density of 0.4×10^5 cells/well. Cells were pre-cultured for 3 to 4 h allowing for attachment to cell culture plates before start of treatment with oligonucleotides.
Before oligonucleotide treatment the seeding medium was replaced by 90 μl of serum free WME.
The total volume of each well was 100 μl. PBS served as vehicle control.
Human primary hepatocytes were cultivated as described in the “Materials and methods” section with addition of 10 ng/ml of EGF to the medium. At confluence the cells were treated with oligonucleotide as described in the “Materials and methods” section, in concentrations of 10 or 100 μM.
The medium was obtained at day 3, and the EGF level was measured according to the assay described in the “Materials and methods” section.

[7] = PTEC-TERT1, 6 days, 10 ng/ml EGF in medium, 25 μM
[8] = PTEC-TERT1, 6 days, 10 ng/ml EGF in medium, 100 μM
[9] = PTEC-TERT1, 6 days, No EGF in Medium, 25 μM
[10] = PTEC-TERT1, 6 days, No EGF in Medium, 100 μM
[11] = PTEC-TERT1, Day 3, 3 μM (Table 2)
[12] = PTEC-TERT1, Day 3, 10 μM (Table 2)
[13] = PTEC-TERT1, Day 3, 11 μM (Table 3)
[14] = PTEC-TERT1, Day 3, 30 μM (Table 2)
[15] = PTEC-TERT1, Day 3, 33 μM (Table 3)
[16] = PTEC-TERT1, Day 3, 100 μM (Table 2)
[17] = PTEC-TERT1, Day 3, 100 μM (Table 3)
[18] = PTEC-TERT1, Day 6, 3 μM (Table 2)
[19] = PTEC-TERT1, Day 6, 10 μM (Table 2)
[20] = PTEC-TERT1, Day 6, 30 μM (Table 2)
[21] = PTEC-TERT1, Day 6, 100 μM (Table 2)
[22] = PTEC-TERT1, Day 7, 11 μM (Table 3)
[23] = PTEC-TERT1, Day 7, 33 μM (Table 3)
[24] = PTEC-TERT1, Day 7, 100 μM (Table 3)
[25] = PTEC-TERT1, Day 10, 11 μM (Table 3)
[26] = PTEC-TERT1, Day 10, 33 μM (Table 3)
[27] = PTEC-TERT1, Day 10, 100 μM (Table 3)
[28] = PTEC-TERT1, EGF 0 ng/ml in medium
[29] = PTEC-TERT1, EGF 10 ng/ml in medium

Substance: GCtgtgtgagcttGG (antisense GCTGTGTGAGCTTGG; sugars from the 5' end l2 d11 l2, backbone and methylation of C not given here) [Compound 4-1]
- EGF (A549 cells [1]; 1 ng oligonucleotide): 132 % saline
- EGF (A549 cells [1]; 10 ng oligonucleotide): 211 % saline
- In vivo nephrotoxicity / in vivo grade of toxicity [2]: high and High and Sever tox
- EGF (PTEC-TERT1 cells [3]; [7]): 731.7 pg/mL
- EGF (PTEC-TERT1 cells [3]; [8]): 1957.8 pg/mL
- EGF (PTEC-TERT1 cells [3]; PTEC-TERT1, 6 days, 10 μM oligonucleotide (Table 7)): 2622 % saline
- Toxicity grade (PTEC-TERT1 cells [3]; PTEC-TERT1, 6 days, 10 μM): 100
- EGF (PTEC-TERT1 cells [3]; PTEC-TERT1, 6 days, 30 μM oligonucleotide (Table 7)): 7311 % saline
- Toxicity grade (PTEC-TERT1 cells [3]; PTEC-TERT1, 6 days, 30 μM): 100
- EGF (PTEC-TERT1 cells [3]; [9]): 5.4 pg/mL
- EGF (PTEC-TERT1 cells [3]; [10]): 5.3 pg/mL
- EGF (PTEC-TERT1 cells [3]; [11]): 71 % saline
- EGF (PTEC-TERT1 cells [3]; [12]): 116 % saline
- EGF (PTEC-TERT1 cells [3]; [13]): 225 % saline
- EGF (PTEC-TERT1 cells [3]; [14]): 302 % saline
- EGF (PTEC-TERT1 cells [3]; [15]): 368 % saline
- EGF (PTEC-TERT1 cells [3]; [16]): 1572 % saline
- EGF (PTEC-TERT1 cells [3]; [17]): 484 % saline
- EGF (PTEC-TERT1 cells [3]; [18]): 37 % saline
- EGF (PTEC-TERT1 cells [3]; [19]): 222 % saline
- EGF (PTEC-TERT1 cells [3]; [20]): 8398 % saline
- EGF (PTEC-TERT1 cells [3]; [21]): 8899 % saline
- EGF (PTEC-TERT1 cells [3]; [22]): 637 % saline
- EGF (PTEC-TERT1 cells [3]; [23]): 983 % saline
- EGF (PTEC-TERT1 cells [3]; [24]): 983 % saline
- EGF (PTEC-TERT1 cells [3]; [25]): 1177 % saline
- EGF (PTEC-TERT1 cells [3]; [26]): 1865 % saline
- EGF (PTEC-TERT1 cells [3]; [27]): 1792 % saline
- ATP (A549 cells [4]; 1 ng oligonucleotide): 93 % saline
- ATP (A549 cells [4]; 10 ng oligonucleotide): 51 % saline
- morphological changes (PTEC-TERT1 cells [5]): adopted a flattened and stable appearance
- PCSK9 mRNA (PCSK9 mRNA; [28]): 6.84 % of saline
- PCSK9 mRNA (PCSK9 mRNA; [29]): 1.47 % of saline
- EGF ([6]; day 3, 10 μM): 323 % saline
- EGF ([6]; day 3, 100 μM): 985 % saline

Substance: TGCtacaaaacCCA (antisense TGCTACAAAACCCA; sugars from the 5' end l3 d8 l3, backbone and methylation of C not given here) [Compound 3-1]
- EGF (A549 cells [1]; 1 ng oligonucleotide): 99 % saline
- EGF (A549 cells [1]; 10 ng oligonucleotide): 199 % saline
- In vivo nephrotoxicity / in vivo grade of toxicity [2]: Medium
- EGF (PTEC-TERT1 cells [3]; [7]): 245.0 pg/mL
- EGF (PTEC-TERT1 cells [3]; [8]): 341.8 pg/mL
- EGF (PTEC-TERT1 cells [3]; [9]): 6.3 pg/mL
- EGF (PTEC-TERT1 cells [3]; [10]): 12.2 pg/mL
- EGF (PTEC-TERT1 cells [3]; [11]): 70 % saline
- EGF (PTEC-TERT1 cells [3]; [12]): 75 % saline
- EGF (PTEC-TERT1 cells [3]; [13]): 151 % saline
- EGF (PTEC-TERT1 cells [3]; [14]): 70 % saline
- EGF (PTEC-TERT1 cells [3]; [15]): 213 % saline
- EGF (PTEC-TERT1 cells [3]; [16]): 128 % saline
- EGF (PTEC-TERT1 cells [3]; [17]): 207 % saline
- EGF (PTEC-TERT1 cells [3]; [18]): 124 % saline
- EGF (PTEC-TERT1 cells [3]; [19]): 137 % saline
- EGF (PTEC-TERT1 cells [3]; [20]): 231 % saline
- EGF (PTEC-TERT1 cells [3]; [21]): 2413 % saline
- EGF (PTEC-TERT1 cells [3]; [22]): 168 % saline
- EGF (PTEC-TERT1 cells [3]; [23]): 287 % saline
- EGF (PTEC-TERT1 cells [3]; [24]): 493 % saline
- EGF (PTEC-TERT1 cells [3]; [25]): 41 % saline
- EGF (PTEC-TERT1 cells [3]; [26]): 138 % saline
- EGF (PTEC-TERT1 cells [3]; [27]): 227 % saline
- ATP (A549 cells [4]; 1 ng oligonucleotide): 91 % saline
- ATP (A549 cells [4]; 10 ng oligonucleotide): 44 % saline
- morphological changes (PTEC-TERT1 cells [5]): formed irregular domes and vacuoles
- PCSK9 mRNA (PCSK9 mRNA; [28]): 2.28 % of saline
- PCSK9 mRNA (PCSK9 mRNA; [29]): 1.46 % of saline
- EGF ([6]; day 3, 10 μM): 227 % saline
- EGF ([6]; day 3, 100 μM): 411 % saline
